Measured values from US20230085307A1, “PYRIDAZINONE COMPOUND AND HERBICIDE” (NISSAN CHEMICAL CORPORATION, priority 2019, published 2023).

Tests used:
[1] = system: late watergrass; test: Test Example 1: herbicidal activity, application before weed generation under submerged conditions (Table 16, symbol A); type: in vivo, late watergrass (Echinochloa oryzicola); details: amount of applied herbicide 320 g/ha
How it was run: (§1)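 Submerged Wagner pots (alluvial soil, 4 cm water) sown with weed seeds and planted with 2.5-leaf rice seedlings; emulsifiable concentrate diluted in water applied to water surface on sowing day. Held in greenhouse at 25-30 °C; injury scored 0-5 by herbicidal rate after three weeks.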

[2] = system: Japanese bulrush; test: Test Example 1: herbicidal activity, application before weed generation under submerged conditions (Table 16, symbol B); type: in vivo, Japanese bulrush (Schoenoplectus juncoides); details: amount of applied herbicide 320 g/ha
How it was run: as §1

[3] = system: oval-leafed pondweed; test: Test Example 1: herbicidal activity, application before weed generation under submerged conditions (Table 16, symbol C); type: in vivo, oval-leafed pondweed (Monochoria vaginalis); details: amount of applied herbicide 320 g/ha
How it was run: as §1

[4] = system: barnyard grass; test: Test Example 3: herbicidal effect by foliage application, Wagner pot (Table 18, symbol H); type: in vivo, barnyard grass (Echinochloa crus-galli); details: 320 g/ha
How it was run: (§2)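 Plants were sown in alluvial soil held under 0.1–0.5 cm standing water and grown 14 days in a greenhouse at 25–30 °C. An emulsifiable formulation, water-diluted to the set dose, was then sprayed onto the foliage, and effects were scored three weeks later using previously defined criteria.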

[5] = system: Chinese sprangletop; test: Test Example 3: herbicidal effect by foliage application, Wagner pot (Table 18, symbol D); type: in vivo, chinese sprangletop (Leptochloa chinensis); details: 320 g/ha
How it was run: as §2

[6] = system: rice flat sedge; test: Test Example 3: herbicidal effect by foliage application, Wagner pot (Table 18, symbol E); type: in vivo, rice flat sedge (Cyperus iria); details: 320 g/ha
How it was run: as §2

[7] = system: southern crabgrass; test: Test Example 4: herbicidal effect by soil treatment (Table 19, symbol F); type: in vivo, southern crabgrass (Digitaria ciliaris); details: amount of applied herbicide 320 g/ha
How it was run: (§3)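 Step 1: sow seeds in sterilized diluvial soil, cover ~1.5 cm. Step 2: spray diluted emulsion onto soil surface at predetermined rate. Step 3: greenhouse, 25–30° C, three weeks. Step 4: grade effect on each plant by earlier criteria.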

[8] = system: green foxtail; test: Test Example 4: herbicidal effect by soil treatment (Table 19, symbol G); type: in vivo, green foxtail (Setaria viridis); details: amount of applied herbicide 320 g/ha
How it was run: as §3

[9] = system: barnyard grass; test: Test Example 4: herbicidal effect by soil treatment (Table 19, symbol H); type: in vivo, barnyard grass (Echinochloa crus-galli); details: amount of applied herbicide 320 g/ha
How it was run: as §3

[10] = system: wild oat; test: Test Example 4: herbicidal effect by soil treatment (Table 19, symbol I); type: in vivo, wild oat (Avena fatua); details: amount of applied herbicide 320 g/ha
How it was run: as §3

[11] = system: blackgrass; test: Test Example 4: herbicidal effect by soil treatment (Table 19, symbol J); type: in vivo, blackgrass (Alopecurus myosuroides); details: amount of applied herbicide 320 g/ha
How it was run: as §3

[12] = system: Italian ryegrass; test: Test Example 4: herbicidal effect by soil treatment (Table 19, symbol K); type: in vivo, Italian ryegrass (Lolium multiflorum); details: amount of applied herbicide 320 g/ha
How it was run: as §3

[13] = system: windgrass; test: Test Example 4: herbicidal effect by soil treatment (Table 19, symbol L); type: in vivo, windgrass (Apera spica-venti); details: amount of applied herbicide 320 g/ha
How it was run: as §3

[14] = system: velvetleaf; test: Test Example 4: herbicidal effect by soil treatment (Table 19, symbol M); type: in vivo, velvetleaf (Abutilon theophrasti); details: amount of applied herbicide 320 g/ha
How it was run: as §3

[15] = system: redroot pigweed; test: Test Example 4: herbicidal effect by soil treatment (Table 19, symbol N); type: in vivo, redroot pigweed (Amaranthus retroflexus); details: amount of applied herbicide 320 g/ha
How it was run: as §3

[16] = system: lambsquarters; test: Test Example 4: herbicidal effect by soil treatment (Table 19, symbol O); type: in vivo, lambsquarters (Chenopodium album); details: amount of applied herbicide 320 g/ha
How it was run: as §3

[17] = system: chickweed; test: Test Example 4: herbicidal effect by soil treatment (Table 19, symbol P); type: in vivo, common chickweed (Stellaria media); details: amount of applied herbicide 320 g/ha
How it was run: as §3

[18] = system: persian speedwell; test: Test Example 4: herbicidal effect by soil treatment (Table 19, symbol R); type: in vivo, Persian speedwell (Veronica persica); details: amount of applied herbicide 320 g/ha
How it was run: as §3

[19] = system: southern crabgrass; test: Test Example 5: herbicidal effect by foliage application, plastic box (Table 20, symbol F); type: in vivo, southern crabgrass (Digitaria ciliaris); details: amount of applied herbicide 320 g/ha; foliage application after 14-day growth; evaluated three weeks after application
How it was run: (§4)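 Foliar spray test: emulsion formulation diluted in water to a set application rate, sprayed onto 14-day-old plants raised in diluvial soil at 25° C to 30° C under glass. Both herbicidal effect and crop effect rated visually three weeks later.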

[20] = system: green foxtail; test: Test Example 5: herbicidal effect by foliage application, plastic box (Table 20, symbol G); type: in vivo, green foxtail (Setaria viridis); details: amount of applied herbicide 320 g/ha; foliage application after 14-day growth; evaluated three weeks after application
How it was run: as §4

[21] = system: barnyard grass; test: Test Example 5: herbicidal effect by foliage application, plastic box (Table 20, symbol H); type: in vivo, barnyard grass (Echinochloa crus-galli); details: amount of applied herbicide 320 g/ha; foliage application after 14-day growth; evaluated three weeks after application
How it was run: as §4

[22] = system: wild oat; test: Test Example 5: herbicidal effect by foliage application, plastic box (Table 20, symbol I); type: in vivo, wild oat (Avena fatua); details: amount of applied herbicide 320 g/ha; foliage application after 14-day growth; evaluated three weeks after application
How it was run: as §4

[23] = system: blackgrass; test: Test Example 5: herbicidal effect by foliage application, plastic box (Table 20, symbol J); type: in vivo, blackgrass (Alopecurus myosuroides); details: amount of applied herbicide 320 g/ha; foliage application after 14-day growth; evaluated three weeks after application
How it was run: as §4

[24] = system: Italian ryegrass; test: Test Example 5: herbicidal effect by foliage application, plastic box (Table 20, symbol K); type: in vivo, Italian ryegrass (Lolium multiflorum); details: amount of applied herbicide 320 g/ha; foliage application after 14-day growth; evaluated three weeks after application
How it was run: as §4

[25] = system: windgrass; test: Test Example 5: herbicidal effect by foliage application, plastic box (Table 20, symbol L); type: in vivo, windgrass (Apera spica-venti); details: amount of applied herbicide 320 g/ha; foliage application after 14-day growth; evaluated three weeks after application
How it was run: as §4

[26] = system: velvetleaf; test: Test Example 5: herbicidal effect by foliage application, plastic box (Table 20, symbol M); type: in vivo, velvetleaf (Abutilon theophrasti); details: amount of applied herbicide 320 g/ha; foliage application after 14-day growth; evaluated three weeks after application
How it was run: as §4

[27] = system: redroot pigweed; test: Test Example 5: herbicidal effect by foliage application, plastic box (Table 20, symbol N); type: in vivo, redroot pigweed (Amaranthus retroflexus); details: amount of applied herbicide 320 g/ha; foliage application after 14-day growth; evaluated three weeks after application
How it was run: as §4

[28] = system: lambsquarters; test: Test Example 5: herbicidal effect by foliage application, plastic box (Table 20, symbol O); type: in vivo, lambsquarters (Chenopodium album); details: amount of applied herbicide 320 g/ha; foliage application after 14-day growth; evaluated three weeks after application
How it was run: as §4

[29] = system: chickweed; test: Test Example 5: herbicidal effect by foliage application, plastic box (Table 20, symbol P); type: in vivo, common chickweed (Stellaria media); details: amount of applied herbicide 320 g/ha; foliage application after 14-day growth; evaluated three weeks after application
How it was run: as §4

[30] = system: persian speedwell; test: Test Example 5: herbicidal effect by foliage application, plastic box (Table 20, symbol R); type: in vivo, Persian speedwell (Veronica persica); details: amount of applied herbicide 320 g/ha; foliage application after 14-day growth; evaluated three weeks after application
How it was run: as §4

SMILES | Herbicidal effect, A: late watergrass [1] | Herbicidal effect, B: Japanese bulrush [2] | Herbicidal effect, C: oval-leafed pondweed [3] | herbicidal effect on barnyard grass (H) [4] | herbicidal effect on Chinese sprangletop (D) [5] | herbicidal effect on rice flat sedge (E) [6] | F: southern crabgrass, herbicidal effect grade [7] | G: green foxtail, herbicidal effect grade [8] | H: barnyard grass, herbicidal effect grade [9] | I: wild oat, herbicidal effect grade [10] | J: blackgrass, herbicidal effect grade [11] | K: Italian ryegrass, herbicidal effect grade [12] | L: windgrass, herbicidal effect grade [13] | M: velvetleaf, herbicidal effect grade [14] | N: redroot pigweed, herbicidal effect grade [15] | O: lambsquarters, herbicidal effect grade [16] | P: chickweed, herbicidal effect grade [17] | R: persian speedwell, herbicidal effect grade [18] | Herbicidal effect by foliage application, F: southern crabgrass [19] | Herbicidal effect by foliage application, G: green foxtail [20] | also measured
CCCC(=O)Oc1c(C)nn(C)c(=O)c1-c1c(-c2ccc(OC(C)C)cc2)sc2cc(F)c(F)cc12 [5-020] | 3 (Herbicidal rate of 40% or more and less than 70%) | 0 (Herbicidal rate of 5% or less (almost no effect)) | 0 (Herbicidal rate of 5% or less (almost no effect)) | 3 (Herbicidal rate of 40% or more and less than 70%) | 0 (Herbicidal rate of 5% or less (almost no effect)) | 0 (Herbicidal rate of 5% or less (almost no effect)) | 0 (Herbicidal rate of 5% or less (almost no effect)) | 0 (Herbicidal rate of 5% or less (almost no effect)) | 0 (Herbicidal rate of 5% or less (almost no effect)) | 0 (Herbicidal rate of 5% or less (almost no effect)) | 0 (Herbicidal rate of 5% or less (almost no effect)) | 0 (Herbicidal rate of 5% or less (almost no effect)) | 0 (Herbicidal rate of 5% or less (almost no effect)) | 0 (Herbicidal rate of 5% or less (almost no effect)) | 3 (Herbicidal rate of 40% or more and less than 70%) | 0 (Herbicidal rate of 5% or less (almost no effect)) | 0 (Herbicidal rate of 5% or less (almost no effect)) | 3 (Herbicidal rate of 40% or more and less than 70%) | 0 (Herbicidal rate of 5% or less (almost no effect)) | 0 (Herbicidal rate of 5% or less (almost no effect)) | Herbicidal effect by foliage application, H: barnyard grass [21]: 1 (Herbicidal rate of 5% or more and less than 20%); Herbicidal effect by foliage application, I: wild oat [22]: 0 (Herbicidal rate of 5% or less (almost no effect)); Herbicidal effect by foliage application, J: blackgrass [23]: 0 (Herbicidal rate of 5% or less (almost no effect)); Herbicidal effect by foliage application, K: Italian ryegrass [24]: 0 (Herbicidal rate of 5% or less (almost no effect)); Herbicidal effect by foliage application, L: windgrass [25]: 0 (Herbicidal rate of 5% or less (almost no effect)); Herbicidal effect by foliage application, M: velvetleaf [26]: 2 (Herbicidal rate of 20% or more and less than 40%); Herbicidal effect by foliage application, N: redroot pigweed [27]: 4 (Herbicidal rate of 70% or more and less than 90%); Herbicidal effect by foliage application, O: lambsquarters [28]: 3 (Herbicidal rate of 40% or more and less than 70%); Herbicidal effect by foliage application, P: chickweed [29]: 4 (Herbicidal rate of 70% or more and less than 90%); Herbicidal effect by foliage application, R: persian speedwell [30]: 5 (Herbicidal rate of 90% or more (almost completely withered))
CCCC(=O)Oc1c(C)nn(C)c(=O)c1-c1c(-c2ccccc2OCC)sc2cc(Cl)c(Cl)cc12 [5-046] | 0 (Herbicidal rate of 5% or less (almost no effect)) | 3 (Herbicidal rate of 40% or more and less than 70%) | 0 (Herbicidal rate of 5% or less (almost no effect)) | 5 (Herbicidal rate of 90% or more (almost completely withered)) | 3 (Herbicidal rate of 40% or more and less than 70%) | 5 (Herbicidal rate of 90% or more (almost completely withered)) | 0 (Herbicidal rate of 5% or less (almost no effect)) | 0 (Herbicidal rate of 5% or less (almost no effect)) | 0 (Herbicidal rate of 5% or less (almost no effect)) | 0 (Herbicidal rate of 5% or less (almost no effect)) | 0 (Herbicidal rate of 5% or less (almost no effect)) | 0 (Herbicidal rate of 5% or less (almost no effect)) | 0 (Herbicidal rate of 5% or less (almost no effect)) | 0 (Herbicidal rate of 5% or less (almost no effect)) | 0 (Herbicidal rate of 5% or less (almost no effect)) | 0 (Herbicidal rate of 5% or less (almost no effect)) | 3 (Herbicidal rate of 40% or more and less than 70%) | 0 (Herbicidal rate of 5% or less (almost no effect)) | 3 (Herbicidal rate of 40% or more and less than 70%) | 3 (Herbicidal rate of 40% or more and less than 70%) | Herbicidal effect by foliage application, H: barnyard grass [21]: 4 (Herbicidal rate of 70% or more and less than 90%); Herbicidal effect by foliage application, I: wild oat [22]: 0 (Herbicidal rate of 5% or less (almost no effect)); Herbicidal effect by foliage application, J: blackgrass [23]: 0 (Herbicidal rate of 5% or less (almost no effect)); Herbicidal effect by foliage application, K: Italian ryegrass [24]: 0 (Herbicidal rate of 5% or less (almost no effect)); Herbicidal effect by foliage application, L: windgrass [25]: 0 (Herbicidal rate of 5% or less (almost no effect)); Herbicidal effect by foliage application, M: velvetleaf [26]: 5 (Herbicidal rate of 90% or more (almost completely withered)); Herbicidal effect by foliage application, N: redroot pigweed [27]: 5 (Herbicidal rate of 90% or more (almost completely withered)); Herbicidal effect by foliage application, O: lambsquarters [28]: 3 (Herbicidal rate of 40% or more and less than 70%); Herbicidal effect by foliage application, P: chickweed [29]: 5 (Herbicidal rate of 90% or more (almost completely withered)); Herbicidal effect by foliage application, R: persian speedwell [30]: 4 (Herbicidal rate of 70% or more and less than 90%)
